Source: ChEMBL document CHEMBL5512663, “Design, synthesis, and evaluation of novel quindoline derivatives with fork-shaped side chains as RNA G-quadruplex stabilizers for repressing oncogene NRAS translation” (Eur J Med Chem, 2024)
Active and inactive are the calls of the source. The calls are words filed in the database; no cut-off is given here.

What was measured:
[1] = test system: Quadruplex RNA; assay: Thermal stabilization of NRAS RNA G4 (unknown origin) assessed as change in melting temperature at 10 uM by CD spectrophotometer analysis; assay type: nucleic-acid assay
[2] = test system: SK-MEL-2; assay: Cytotoxicity against human SK-MEL-2 cells incubated for 48 hrs by MTT assay; assay type: functional, cell-based; conditions: SK-MEL-2, 48 h
[3] = test system: Quadruplex DNA; assay: Thermal stabilization of NRAS DNA G4 (unknown origin) assessed as change in melting temperature at 10 uM by CD spectrophotometer analysis; assay type: nucleic-acid assay
[4] = test system: Quadruplex DNA; assay: Thermal stabilization of KRAS G4 (unknown origin); assay type: nucleic-acid assay
[5] = Thermal stabilization of thrombin binding aptamer (unknown origin)
[6] = test system: dsDNA; assay: Thermal stabilization of DNA duplex (ds18) (unknown origin); assay type: nucleic-acid assay
[7] = test system: RNA; assay: Thermal stabilization of RNA hairpin (unknown origin); assay type: nucleic-acid assay
[8] = target: Quadruplex RNA; assay: Binding affinity to NRAS RNA G4 (unknown origin) by SPR method; assay type: nucleic-acid assay
[9] = test system: Quadruplex RNA; assay: Induction of RNA G4s stabilization in human SK-MEL-2 cells assessed as increase in cytoplasmic rG4s after 24 hrs by immunofluorescence assay; assay type: cell-based
[10] = test system: Quadruplex RNA; assay: Induction of NRAS RNA G4 stabilization in human SK-MEL-2 cells transfected with NRAS 5'-UTR wild-type assessed as reduction in ratio of RL to FL at 0.5 uM incubated for 66 hrs by dual luciferase reporter gene assay; assay type: cell-based
[11] = test system: Quadruplex RNA; assay: Induction of NRAS RNA G4 stabilization in human SK-MEL-2 cells transfected with NRAS mutant assessed as reduction in ratio of RL to FL at 0.5 uM incubated for 66 hrs by dual luciferase reporter gene assay; assay type: cell-based
[12] = test system: SK-MEL-2; assay: Downregulation of NRAS protein level in human SK-MEL-2 cells after 72 hrs by Western blotting analysis; assay type: functional, cell-based; conditions: dose 0.5-1 µM
[13] = test system: SK-MEL-2; assay: Downregulation of NRAS mRNA level in human SK-MEL-2 cells by qRT-PCR analysis; assay type: functional, cell-based
[14] = test system: SK-MEL-2; assay: Inhibition of colony formation in human SK-MEL-2 cells at 0.13 to 0.25 uM after 10 days by crystal violet staining based assay; assay type: functional, cell-based; conditions: dose 0.13-0.25 µM, time 10.0 day
[15] = test system: SK-MEL-2; assay: Antiproliferative activity against human SK-MEL-2 cells at 0.25 uM incubated for 48 hrs by MTT assay; assay type: functional
[16] = test system: MCF7; assay: Cytotoxicity against human MCF7 cells incubated for 48 hrs by MTT assay; assay type: functional, cell-based; conditions: MCF7, 48 h
[17] = test system: HepG2; assay: Cytotoxicity against human HepG2 cells incubated for 48 hrs by MTT assay; assay type: functional, cell-based; conditions: HepG2, 48 h
[18] = test system: HL-60; assay: Cytotoxicity against human HL-60 cells incubated for 48 hrs by MTT assay; assay type: functional, cell-based; conditions: HL-60, 48 h
[19] = test system: A-375; assay: Cytotoxicity against human A-375 cells incubated for 48 hrs by MTT assay; assay type: functional, cell-based; conditions: A-375, 48 h
[20] = Drug localization in human SK-MEL-2 cells cytoplasm at 0.5 uM incubated for 24 hrs by laser scanning confocal microscopy; assay type: ADME, subcellular; conditions: sk-mel-2, 24 h
[21] = test system: SK-MEL-2; assay: Antitumor activity against human SK-MEL-2 cells xenografted in BALB/c nude mouse assessed as reduction in tumor volume at 1 mg/kg, ip measured every 3 days; assay type: functional, organism-based; conditions: time 21.0 day, TDE = time-dependent effect
[22] = test system: SK-MEL-2; assay: Antitumor activity against human SK-MEL-2 cells xenografted in BALB/c nude mouse assessed as reduction in tumor weight at 1 mg/kg, ip; assay type: functional, organism-based; conditions: time 21.0 day, TDE = time-dependent effect
[23] = test system: SK-MEL-2; assay: Antitumor activity against human SK-MEL-2 cells xenografted in BALB/c nude mouse assessed as reduction in tumor growth inhibition at 1 mg/kg, ip administered every day for 21 days; assay type: functional; conditions: SK-MEL-2, 504 h, time 21 day, read-out: TGI
[24] = Toxicity in BALB/c nude mouse assessed as weight loss at 1 mg/kg, ip administered every day for 21 days and measured every 3 days; assay type: organism-based; conditions: in vivo, 504 h, time 21 day
[25] = Toxicity in BALB/c nude mouse assessed as organ damage at 1 mg/kg, ip administered every day for 21 days; assay type: organism-based; conditions: in vivo, 504 h, time 21 day
[26] = Toxicity in BALB/c nude mouse assessed as pain at 1 mg/kg, ip administered every day for 21 days; assay type: organism-based; conditions: in vivo, 504 h, time 21 day
[27] = Toxicity in BALB/c nude mouse assessed as distress at 1 mg/kg, ip administered every day for 21 days; assay type: organism-based; conditions: in vivo, 504 h, time 21 day
[28] = Toxicity in BALB/c nude mouse assessed as discomfort at 1 mg/kg, ip administered every day for 21 days; assay type: organism-based; conditions: in vivo, 504 h, time 21 day

`CCCCN(CCCC)CCOc1ccc2nc3c(oc4ccc(F)cc43)c(NCCN3CCCCC3)c2c1` showed a ΔTm [1] of 26.2 °C and an IC50 [2] of 8.8 µM.
`CCCCN(CCCC)CCCNc1ccc2nc3c(oc4ccc(F)cc43)c(NCCN3CCCC3)c2c1` showed a ΔTm [1] of 19.8 °C and an IC50 [2] of 3.4 µM.
`CCCCN(CCCC)CCCOc1ccc2nc3c(oc4ccc(F)cc43)c(NCCN(C)C)c2c1` gave a ΔTm [1] of 23.9 °C and an IC50 [2] of 4 µM.
`CCN(CC)CCCOc1ccc2nc3c(oc4ccc(F)cc43)c(NCCN3CCCC3)c2c1` showed a ΔTm [1] of 26.3 °C and an IC50 [2] of 7.1 µM.
For `CCCCN(CCCC)CCCOc1ccc2nc3c(oc4ccc(F)cc43)c(NCCN3CCCC3)c2c1`, the ΔTm [1] was 20.8 °C and the IC50 [2] was 4 µM.
Work on `CCCCN(CCCC)CCCOc1ccc2nc3c(oc4ccccc43)c(NCCCN)c2c1` yielded a ΔTm [1] of 19.5 °C and an IC50 [2] of 2.6 µM.
Work on `CCCCN(CCCC)CCOc1ccc2nc3c(oc4ccc(F)cc43)c(NCCCN)c2c1` yielded a ΔTm [1] of 22.1 °C and an IC50 [2] of 2 µM.
In the case of `NCCNc1c2cc(OCCN3CCCCCC3)ccc2nc2c1oc1ccc(F)cc12`, the ΔTm [1] is reported as 18.1 °C and the IC50 [2] is reported as 6.3 µM.
In the case of `CCCCN(CCCC)CCOc1ccc2nc3c(oc4ccc(F)cc43)c(NCCN)c2c1`, the ΔTm [1] is reported as 13.4 °C and the IC50 [2] is reported as 5.1 µM.
`CCCCN(CCCC)CCCNc1ccc2nc3c(oc4ccc(F)cc43)c(NCCCN)c2c1` showed a ΔTm [1] of 19.3 °C and an IC50 [2] of 4.5 µM.
`CCN(CC)CCCOc1ccc2nc3c(oc4ccc(F)cc43)c(NCCN)c2c1` showed a ΔTm [1] of 21.2 °C and an IC50 [2] of 6.7 µM.
Work on `CCCCN(CCCC)CCCOc1ccc2nc3c(oc4ccc(F)cc43)c(NCCN)c2c1` yielded a ΔTm [1] of 22.9 °C and an IC50 [2] of 2.2 µM.
In the case of `CCCCN(CCCC)CCCOc1ccc2nc3c(oc4ccc(F)cc43)c(NCCCN)c2c1`, the ΔTm [1] is reported as 26.1 °C, the IC50 [2] is reported as 2 µM and the ΔTm [3] is reported as 19 °C. For the same compound, the Activity [4] was “inactive”, the Activity [5] was “inactive” and the Activity [6] was “inactive”. For the same compound, the Activity [7] was “inactive”, the Kd [8] was 2.31 µM and the Activity [9] was “Active”. The Activity [10] was “Active”, the Activity [11] was “inactive” and the Activity [12] was “Dose-Dependent Effect”. For the same compound, the Activity [13] was “inactive”, the inhibition [14] was “Active” and the Activity [15] was 100%. It also gave an IC50 [16] of 4.1 µM, an IC50 [17] of 1.5 µM and an IC50 [18] of 2.7 µM. For the same compound, the IC50 [19] was 4.5 µM, the Drug uptake [20] was “Active” and the Activity [21] was “Tde”. For the same compound, the Activity [22] was “Tde”, the inhibition in vivo at 1 mg/kg [23] was 54.9% and the Activity [24] was “Non-Toxic”. For the same compound, the Activity [25] was “Non-Toxic”, the Activity [26] was “Non-Toxic” and the Activity [27] was “Non-Toxic”. For the same compound, the Activity [28] was “Non-Toxic”.
Compound `CCN(CC)CCCOc1ccc2nc3c(oc4ccc(F)cc43)c(NCCN(C)C)c2c1` has a ΔTm [1] of 26.3 °C and an IC50 [2] of 6.4 µM.
In the case of `CCN(CC)CCCOc1ccc2nc3c(oc4ccc(F)cc43)c(NCCCN)c2c1`, the ΔTm [1] is reported as 25.3 °C and the IC50 [2] is reported as 3.9 µM.
Work on `CCCCN(CCCC)CCCOc1ccc2nc3c(oc4ccc(F)cc43)c(NCCN3CCN(C)CC3)c2c1` yielded a ΔTm [1] of 31.8 °C and an IC50 [2] of 4 µM.
With `CN(C)CCCCCCOc1ccc2nc3c(oc4ccc(F)cc43)c(NCCN3CCCC3)c2c1` the ΔTm [1] was 24.8 °C and the IC50 [2] was 7.4 µM.
In the case of `CCCCN(CCCC)CCOc1ccc2nc3c(oc4ccc(F)cc43)c(NCCN3CCN(C)CC3)c2c1`, the ΔTm [1] is reported as 30.6 °C and the IC50 [2] is reported as 7.6 µM.
Work on `CSc1ccc(/C=C/c2ccc3nc4c(oc5ccccc54)c(NCCN4CCN(C)CC4)c3c2)cc1` yielded a ΔTm [1] of 16.8 °C and an IC50 [2] of 3.2 µM.
`CCCCN(CCCC)CCOc1ccc2nc3c(oc4ccc(F)cc43)c(NCCN3CCCC3)c2c1` gave a ΔTm [1] of 24 °C and an IC50 [2] of 5.1 µM.
In the case of `Fc1ccc2oc3c(NCCN4CCCC4)c4cc(OCCN5CCCCCC5)ccc4nc3c2c1`, the ΔTm [1] is reported as 21.4 °C and the IC50 [2] is reported as 6.9 µM.
In the case of `CCCCN(CCCC)CCCOc1ccc2nc3c(oc4ccccc43)c(NCCN3CCCC3)c2c1`, the ΔTm [1] is reported as 20.2 °C and the IC50 [2] is reported as 4.5 µM.
For `CCCCN(CCCC)CCCOc1ccc2nc3c(oc4ccccc43)c(NCCN(C)C)c2c1`, the ΔTm [1] was 22 °C and the IC50 [2] was 5.7 µM.
For `CN(C)CCCCCCOc1ccc2nc3c(oc4ccc(F)cc43)c(NCCN)c2c1`, the ΔTm [1] was 20.7 °C and the IC50 [2] was 7.1 µM.
Work on `CCCCN(CCCC)CCCOc1ccc2nc3c(oc4ccc(F)cc43)c(NCCN3CCCCC3)c2c1` yielded a ΔTm [1] of 24.4 °C and an IC50 [2] of 5.5 µM.
With `CCCCN(CCCC)CCCNc1ccc2nc3c(oc4ccc(F)cc43)c(NCCN(C)C)c2c1` the ΔTm [1] was 19.4 °C and the IC50 [2] was 3.4 µM.
In the case of `CN(C)CCCCCCOc1ccc2nc3c(oc4ccc(F)cc43)c(NCCN(C)C)c2c1`, the ΔTm [1] is reported as 24.1 °C and the IC50 [2] is reported as 7.2 µM.
Work on `NCCCNc1c2cc(OCCN3CCCCCC3)ccc2nc2c1oc1ccc(F)cc12` yielded a ΔTm [1] of 24.2 °C and an IC50 [2] of 5.4 µM.
In the case of `CN(C)CCCCCCOc1ccc2nc3c(oc4ccc(F)cc43)c(NCCCN)c2c1`, the ΔTm [1] is reported as 25.3 °C and the IC50 [2] is reported as 7.7 µM.
In the case of `CCCCN(CCCC)CCOc1ccc2nc3c(oc4ccc(F)cc43)c(NCCN(C)C)c2c1`, the ΔTm [1] is reported as 26.3 °C and the IC50 [2] is reported as 4.5 µM.
In the case of `CCCCN(CCCC)CCCNc1ccc2nc3c(oc4ccc(F)cc43)c(NCCN3CCCCC3)c2c1`, the ΔTm [1] is reported as 21.3 °C and the IC50 [2] is reported as 5.4 µM.
`CN(C)CCNc1c2cc(OCCN3CCCCCC3)ccc2nc2c1oc1ccc(F)cc12` showed a ΔTm [1] of 18.1 °C and an IC50 [2] of 6.6 µM.
Work on `CCCCN(CCCC)CCCNc1ccc2nc3c(oc4ccc(F)cc43)c(NCCN3CCN(C)CC3)c2c1` yielded a ΔTm [1] of 25.5 °C and an IC50 [2] of 4.3 µM.
